Assay results from US6642031B2, “Microorganisms with ability to degrade indole and enzymes therefrom” (Genencor International, Inc., priority 1995, dated 2003).
Where “and” joins values, the source holds several entries; their conditions need not be identical. Equal values may be shown once. Read-outs that look alike come from different tables or passages of the source.

Assays:
Strain WW2 whole cells = experiment: Whole cell oxygen uptake with indole and related substrates (Clark electrode oxygraph); type: cell-based, Pseudomonas putida; details: for Relative % (oxygen uptake rate) / Oxygen Uptake: substrate 0.6 mM; for Relative % (oxygen uptake rate): indole-dependent rate defined as 100%; for Oxygen Uptake: whole cells 4.5 h after indole induction, corrected for uptake without substrate
Experimental: (§1) Carbon utilization of WW2 was determined by its ability to grow on alternate carbon sources. The bulk of these were determined by Biolog assay. […] In addition, substrate-dependent oxygen consumption of whole resting cells was measured by oxygraph assay as described in Example 11.
(§2) Indole oxidation activity in whole cells was routinely determined by measuring oxygen uptake rates with a Biological Oxygen Monitor (Yellow Springs Instrument Co., model 5300, Ohio) equipped with a Clark electrode. Reactions were carried out in a stirred, 1.5 ml reaction chamber at 25° C. Washed cells of strain WW2 suspended in 50 mM Tris-HCl (pH 7.5) to an A600 of 2.0 were pre-equilibrated at 25° C. before their addition to the reaction chamber. After recording the endogenous oxygen uptake rate, indole or other substrates (100 mM in dimethylformamide) were added to a final concentration of 0.3 to 1 mM. […] Reported rates were corrected for oxygen uptake observed in the absence of substrate. In the case of indoxyl, the reported rate was also corrected for the spontaneous oxygen consumption rate of indoxyl oxidation in the absence of indole-induced cells.

indole oxidase [1] = experiment: Cell-free oxygen uptake in WW2 indole-induced cell extract; type: biochemical, Pseudomonas putida; details: for Oxygen Uptake: 1.82 mg/ml cell extract protein, 1 mM NADH, pH 7.5, corrected for uptake without substrate
[2] = system: indole oxidation activity in strain WW2 crude cell extract; experiment: Cell-free indole-dependent NAD(P)H oxidation, cofactor requirements (spectrophotometric); type: biochemical, Pseudomonas putida
Experimental: Spectrophotometric assavs. Cell-free, indole-dependent NADH oxidation was measured spectrophotometrically with a Hewlett-Packard 8452A diode array spectrophotometer. The reactions (1.0 ml volume) contained crude soluble cytosolic fraction (SCF), 3.0 mM NADH, 2.0 mM indole and 50 mM Tris-HCl (pH 7.5). The reactions were initiated by addition of NADH and the initial rates were corrected for background NADH oxidation rates, which were measured in the absence of indole. NADPH was substituted for NADH to compare its ability to serve as an electron donor for indole oxidation activity.
Cofactor requirement of the indole oxidizing activity in the crude soluble cytosolic fraction was investigated in spectrophotometric assays as described in Example 6.

Strain WW2 = experiment: Induction and sustaining of indole oxidation activity in growing cultures (oxygen uptake with indole); type: cell-based, Pseudomonas putida; details: for Oxygen Uptake Rate, Rate 3 h After Re-Addition: re-addition (indole 0.2 g/l and/or succinate 2 g/l) to 4 h indole-induced cells, measured 7 h after initial induction
Text: Several methods were examined to induce cultures of strain Pseudomonas putida WW2 for indole oxidation during growth. These included growing the strain in MSB containing 0.2% succinate with: (i) a single addition of 0.02% indole and 0.2% succinate during late log phase; (ii) indole provided in the vapor phase, during growth, from a small cloth bag containing indole crystals suspended above the surface of the medium; or (iii) both indole vapor during growth and direct addition of 0.02% indole and 0.2% succinate during late log phase.
as §2

[3] = system: Pseudomonas putida strain WW2; experiment: Growth on carbon sources in MSB liquid culture or agar plates; details: for support of growth as carbon source (words): MSB liquid medium or agar plates
Experimental: Cultivation of the organism. Growth was measured turbidimetrically at 600 nm. […] Additional potential carbon sources were assessed in MSB supplemented with the carbon alternate source (0.2% (w/v) unless specified otherwise) or on plates provided with volatile substrates in the vapor phase. Growth was also conducted in 14 L fermenters in the fed batch mode. […] To study enzyme activity of indole oxidase, the organism was cultured in 50 or 500 ml of media (in 250 ml or 2.8 L nominal volume flasks, respectively) containing minimal salts, succinate and 0.02% indole at 30° C. with rotary shaking (200 rpm).
as §1

indole oxidase [4] = experiment: Substrate depletion assay with cell extract, GC/MS and visible spectrum; type: biochemical, Pseudomonas putida
Experimental: Substrate depletion assays. Substrate depletion assays were carried out in 1.5 ml to 10 ml reactions containing crude SCF, 4.0 mM NADH or NADPH, 2.0 μM FAD, and 1.0 mM indole in 50 mM Tris-HCl (pH 7.5 or 8.0). Substrate and product concentrations were determined by incubating the reactions for the specified period of time with shaking at 250 rpm, extracting 1.0 ml of the aqueous reaction with ethyl acetate and analyzing the extract by gas chromatography-mass spectrometry (GC/MS) described below.
GC/MS was carried out with a Hewlett-Packard model 5890 gas chromatograph equipped with a Hewlett-Packard DB-5 capillary column (inside diameter 0.2 mm by 25 m) and a Hewlett-Packard model 5971 mass selective detector (electron impact ionization 70 eV). The column temperature was programmed from 50 to 325° C. at 10° C./min with a helium flow of 12 cm/s. Temperatures of the injection port and transfer line were 250 and 280° C., respectively.
After indole was completely consumed the reaction mixture was diluted into dimethylformamide (DMF) and the visible spectrum of the resultant blue solution was measured.

[5] = substrate 0.3 mM, indole = 100%

Structure (SMILES) | Relative % (oxygen uptake rate) (Strain WW2 whole cells) | Oxygen Uptake (Strain WW2 whole cells) | Oxygen Uptake (indole oxidase [1]; substrate 0.3 mM) | Relative % (oxygen uptake rate) (indole oxidase [1]; [5]) | further results
c1ccc2occc2c1 [2,3-Benzofuran] | 30% | 3.5 O2 %/min/ODU | 0 O2 %/min/ODU | 0% | 
Cc1c[nH]c2ccccc12 [3-Me-Indole] |  |  | 2 O2 %/min/ODU | 14% | 
Clc1cccc2[nH]ccc12 [4-Cl-Indole] |  |  | 0 O2 %/min/ODU | 0% | 
Cc1cccc2[nH]ccc12 [4-Me-Indole] |  |  | 1 O2 %/min/ODU | 7% | 
Oc1cccc2[nH]ccc12 [4-OH-Indole] |  |  | 2.5 O2 %/min/ODU |  | Relative % (oxygen uptake rate) (indole oxidase [1]): 17%
Brc1ccc2[nH]ccc2c1 [5-Br-Indole] |  |  | 0 O2 %/min/ODU | 0% | 
Clc1ccc2[nH]ccc2c1 [5-Cl-Indole] |  |  | 4 O2 %/min/ODU | 28% | 
Fc1ccc2[nH]ccc2c1 [5-F-Indole, 5-fluoroindole] | 50% | 5.9 O2 %/min/ODU | 13.5 O2 %/min/ODU | 93% | 
COc1ccc2[nH]ccc2c1 [5-MeO-Indole] |  |  | 1 O2 %/min/ODU |  | Relative % (oxygen uptake rate) (indole oxidase [1]): 7%
O=[N+]([O-])c1ccc2[nH]ccc2c1 [5-NO2-Indole] |  |  | 0 O2 %/min/ODU | 0% | 
Oc1ccc2[nH]ccc2c1 [5-OH-Indole] |  |  | 3.5 O2 %/min/ODU | 24% | 
Clc1ccc2cc[nH]c2c1 [6-Cl-Indole] |  |  | 7 O2 %/min/ODU | 48% | 
Cc1cccc2cc[nH]c12 [7-Me-Indole] | 39% | 4.6 O2 %/min/ODU | 12.5 O2 %/min/ODU | 86% | 
Nc1ccccc1C(=O)O [Anthranilate, Anthranilic acid] | <1% | 0.6 O2 %/min/ODU |  |  | stimulation of oxygen uptake rate (Strain WW2 whole cells; whole resting cells): no significant stimulation
Cc1cc2nc3c(=O)[nH]c(=O)nc-3n(C[C@H](O)[C@H](O)[C@H](O)COP(=O)(O)OP(=O)(O)OC[C@H]3O[C@@H](n4cnc5c(N)ncnc54)[C@H](O)[C@@H]3O)c2cc1C [FAD, flavin adenine dinucleotide] |  |  |  |  | stimulation of activity by cofactor added to the assay [2]: 3 fold
Cc1cc2nc3c(=O)[nH]c(=O)nc-3n(C[C@H](O)[C@H](O)[C@H](O)COP(=O)(O)O)c2cc1C [FMN] |  |  |  |  | effect of added cofactor on activity [2]: no effect
O=S(=O)([O-])[O-].O=S(=O)([O-])[O-].[Fe+2].[NH4+].[NH4+] [Fe^++, Fe(NH4)2SO4] |  |  |  |  | effect of added cofactor on activity [2]: stimulatory effect
c1ccc2[nH]ccc2c1 [Indole] | 100% | 11.8 O2 %/min/ODU | 14.5 O2 %/min/ODU | 100% | Oxygen Uptake Rate, Rate After 4 h Induction with Indole (Strain WW2; induced with indole 0.2 g/l at 16 h growth, before re-addition): 14.4 O2 %/min/ODU and 13.3 O2 %/min/ODU and 14.1 O2 %/min/ODU and 12.1 O2 %/min/ODU; Oxygen Uptake Rate, Rate 3 h After Re-Addition (Strain WW2): 13.8 O2 %/min/ODU; support of growth as carbon source (words) [3]: good carbon source; concentration above which toxic ([3]; liquid culture): exceeded 400 mg/L; conversion of indole to indigo (indole oxidase [4]; 4.0 mM NADPH as electron donor, from absorption at 610 nm in DMF): 20%
Oc1c[nH]c2ccccc12 [Indoxyl, 3-hydroxyindole] | 177% | 20.9 O2 %/min/ODU |  |  | increase in oxygen uptake rate (Strain WW2 whole cells; relative to indole): 1.7 fold
O=C1Nc2ccccc2C1=O [Isatin, 2,3-dioxoindole] |  |  | 0 O2 %/min/ODU | 0% | 
NC(=O)C1=CN([C@@H]2O[C@H](COP(=O)(O)OP(=O)(O)OC[C@H]3O[C@@H](n4cnc5c(N)ncnc54)[C@H](OP(=O)(O)O)[C@@H]3O)[C@@H](O)[C@H]2O)C=CC1 [NADPH, nicotinamide adenine phosphate dinucleotide] |  |  |  |  | rate of indole removal relative to that observed with NADH (indole oxidase [4]; 4.0 mM NADPH instead of NADH, cell extract 0.57 mg/ml, pH 8): approximately 60%
c1ccc2ccccc2c1 [Naphthalene] | 9% | 1.1 O2 %/min/ODU |  |  | Relative % (oxygen uptake rate) (Strain WW2 whole cells; listed as naphthalene): 9%; activity of the enzyme with the substrate (indole oxidase [1]): very low activity; support of growth as carbon source (words) [3]: did not support growth; support of growth as carbon source (words) ([3]; listed as naphthalene): not to support growth
O=C(O)CCC(=O)O [Succinate] |  |  |  |  | Oxygen Uptake Rate, Rate 3 h After Re-Addition (Strain WW2): 1.8 O2 %/min/ODU
c1ccc2sccc2c1 [Thianaphthene] | 26% | 3.1 O2 %/min/ODU | 1 O2 %/min/ODU | 7% | 
C1=Cc2ccccc2C1 [indene] |  |  |  |  | 2-indanone, single detectable product, share of total ion current (indole oxidase [4]; crude SCF with NADPH, GC/MS): approximately 20%
